Measurements reported in patent US20080241870A1, “Composition For Creating an Artificial Bone Marrow Like Environment and Use Thereof” (NATIONAL CENTRE FOR CELL SCINECES, priority 2005, published 2008).

Experiments:
Type in all cases: cell-based, human
mesenchyme cells = experiment: SDF-1α release / in vitro homing of CD34+ SPC (conditioned medium of treated mesenchyme cells); conditions: 10 ngml^-1, 4 hours treatment, conditioned medium after 18 hours; vs untreated reference
Experimental: 5×10^5 mesenchyme cells were grown on a 35 mm diameter Petri dish (Becton Dickinson, USA) in IMDM containing 20% serum. After the cells were confluent, the medium was removed, the cells were washed 2× with Phosphate buffered saline (GIBCO-BRL) (PBS) and the medium was changed to treatment medium containing 10 ngml^−1 of TGFβ1 and the dishes were returned to standard cell culture environment at 37° C. in 5% CO2. After 4 hours, the treatment medium was removed, the cells were washed with PBS and were covered with 1 ml of IMDM containing 0.5% serum and incubation at 37° C. in 5% CO2 was continued. After 18 hours, the conditioned medium was collected and was assayed for its ability to support in vitro homing of CD34^+ SPC. In another parallel experiment, an equal number of mesenchymal cells were employed, where TGF-β1 was not used and the conditioned medium obtained from this experiment was used as a reference for comparison. […] As shown in FIGS. 6(a-b) untreated mesenchymal cells show no or marginal homing as compared to mesenchymal cells treated with TGF-β1. The homing could be modulated in this case either by adding suitable amounts of a neutralizing antibody to SDF-1α or to its receptor CXCR-4 to neutralize its effects on chemo-attraction of SPC or by destroying the gradient by exogenous addition of SDF1α indicating the specificity of the process.

CD34+ SPC = experiment: lineage commitment: HCFA with CD34+ SPC, count of mature blood cells after 14 days; conditions: 10 ngml^-1, 18 hours; HCFA 14 days; FIG. 8a
Experimental: The mesenchyme cells (5×10^4 cells per well in a 24 well dish) were grown in IMDM plus 20% fetal bovine serum until they were nearly confluent. The medium was removed and was washed 2× with PBS. Two different ABME were prepared by using two biological hematomodulators (TGFβ1 10 ngml^−1, bFGF 10 ngml^−1, 18 hours) separately. The ABME formed was washed 2× with PBS and was covered with 0.2 ml of a suspension of CD34^+ SPC cells (10^5 ml−1) for 1 hour at 37° C. All the cells of the dish were then harvested after washing and were used in a HCFA. After 14 days, the mature blood cells formed were harvested and an aliquot of the suspension was examined under the microscope to identify and count the mature lymphoid and myeloid cells.
The mesenchyme cells (5×10^4 cells per well in a 24 well dish) were grown in IMDM plus 20% fetal bovine serum until they were nearly confluent. The medium was removed and was washed 2× with PBS. The cells in one well were treated with a DiBromo derivative of the Calcium ion chelator BAPTA (5 micromolar) for one hour whereas another well received only the medium without the BAPTA derivative. After 1 hour of incubation at 37° C., TGFβ1 was added to both the wells (10 ng ml−1) and the incubation was continued for a further period of 18 hours. The ABME formed in both wells were washed and were used for HCFA using CD34^+ SPC. After 14 days the mature blood cells were harvested and were quantitated for the cells of erythroid and myeloid lineage.

mesenchymal cells = experiment: Hypoxy probe incorporation in ABME under normoxic conditions; conditions: 200 μM Hypoxy probe, 48 hours; FIG. 11b
Experimental: Mesenchymal cells were processed for ABME formation as per details given in Example 7(a) above using a biological modulator namely TGFbeta1 and were incubated with 200 μM Hypoxy probe (Chemicon, USA) for 48 hours. The cells were fixed and immuno-stained with an antibody specific for detection of the label (Chemicon).

HumanTransforming Growth Factor beta1 [TGFβ1]
SDF-1α release from mesenchymal cells (mesenchyme cells): significantly more amounts of SDF-1α was released
mature lymphoid and myeloid cells formed (CD34+ SPC): supported more myeloid cell formation
Hypoxy probe label incorporation (mesenchymal cells): high incorporation of the label
